Experiments:
[1] = Assessment of hydrolysis rate at pH 3.0 (acetaldehyde release, UV/Vis 276 nm); type: physicochemical; settings: for Half life (s) at pH 3.0 / half-life: pH 3.0 citrate buffer, stirring at 200 rpm, first order release of acetaldehyde, measured for this work; for Acetaldehyde release rate relative to Comparative Samples 2-5: pH 3.0; for half-life: read-out: Half life (s) at pH 3.0 (converted)
Description: Assessment of Hydrolysis Rate at pH 3.0
Instant beverage applications require rapid hydrolysis of the precursor molecules in order to rapidly release acetaldehyde. Because such beverages might be consumed immediately upon preparation, it is desired for the release to be as rapid as possible.
A pH 3.0 buffer solution was prepared by adding 16.43 g citric acid (CAS 77-92-9) and 4.26 g disodium citrate (CAS 144-33-2) to 1 L of deionized water. Aliquots of the Examples 1, 2 and 10 preparations were added to the buffer solution within a Distek 2100B USP 2 dissolution system stirring at 200 rpm. The concentration of acetaldehyde in solution was monitored as a function of time using a UV/Vis spectrometer probe which measured absorbance at 276 nm every 1 second. Results for comparative samples were taken from work by Gassenmeier et al.. A sample of acetaldehyde diethyl acetal was also measured directly and the result was similar to that reported by Gassenmeier et al. Examples 1, 2 and 10 released acetaldehyde faster than Comparative Samples 2-5.

[2] = Assessment of hydrolysis rate under spray drying feed conditions (pH 8.0 buffer/limonene emulsion); type: physicochemical; settings: for t50 values relative to Comparative Sample 1: pH 8.0 emulsion; for t50 at pH 8.0 (time to 50% of the maximum absorbance): pH 8.0 phosphate buffer, 0.20 g in 0.8 g limonene added to 10 g buffer (emulsion)
Description: Assessment of Hydrolysis Rate Under Spray Driving Feed Conditions
Acetaldehyde precursors suitable for rendering into dry powders must avoid releasing significant levels of acetaldehyde during various stages of processing. In particular they should resist hydrolysis during the preparation of a spray drying feed emulsion, which can be neutral to basic pH and can contain a significant volume fraction of an oil phase.
A pH 8.0 buffer solution was prepared by adding 49.92 g disodium phosphate heptahydrate (CAS 7782-85-6) and 1.93 g monosodium phosphate (CAS 7558-80-7) to 1 L of deionised water. Aliquots of 0.20 g of the Examples 1, 2 and 10 preparations were dissolved in 0.8 g of limonene (CAS 5989-25-7) added to 10 g of the buffer solution within a 30 mL Erlenmeyer flask containing a stir bar. The concentration of acetaldehyde in solution was monitored as a function of time using a UV/Vis spectrometer probe measuring absorbance at 276 nm. Stirring was periodically stopped to allow oil droplets to rise to the surface and collect an unobscured absorbance reading of the aqueous solution. Release followed mixed zero and first order kinetics. t50 (the time to 50% of the maximum absorbance) values are reported in Table 2. Comparative Sample 1 has t50 of 2.1 minutes, which is so short that a person skilled in the art would consider this compound at risk of experiencing a problematic degree of hydrolysis during processing.

Row | Structure (SMILES) | Half life (s) at pH 3.0 [1] | Acetaldehyde release rate relative to Comparative Samples 2-5 [1] | half-life [1] | t50 values relative to Comparative Sample 1 [2] | t50 at pH 8.0 (time to 50% of the maximum absorbance) [2]
1 | CCOC(C)OCC [Comparative Sample 2, Acetaldehyde diethyl acetal, reference compound] | 539 s | – | – | – | –
2 | CCOC(C)OC(=O)CCC(=O)OC(C)OCC (stereo not drawn) [Example 1, Bis(1-ethoxyethyl) succinate] | – | faster | 96 s | longer | 14.0 min
3 | CCOC(C)OC(=O)CCCCC(=O)OC(C)OCC (stereo not drawn) [Example 2, Bis(1-ethoxyethyl) adipate] | – | faster | 185 s | longer | 44.6 min
4 | CCOC(C)OC(C)=O (stereo not drawn) [Example 10, 1-ethoxyethyl acetate, reference compound] | 31 s | faster | – | – | 2.1 min
